Test results from patent US9394297B2, “Amides as pim inhibitors” (AMGEN INC., priority 2012, dated 2016).
Counter-ions that a name gives are not always drawn. Like-named read-outs stand apart in the source and are kept apart here.

Legend:
[1] = target: T1, Pim-1 (Homo sapiens (Human), UniProt P11309); assay: Pim enzyme assay (HTRF, 96-well), Pim-1; type: biochemical; details: full length recombinant Pim-1, biotinylated-BAD (S112) peptide, 10-point curve, 2 h RT, read-out: Pim-1 IC50 IP
Excerpt: (§1) These cDNAs were used as templates in PCR reactions to produce full-length DNA clones of the PIMs. […] PCR products were digested with BclI and EcoRI for Pim-1 and BamHI and EcoRI for Pim-2 and ligated into a modified baculovirus transfer vector (pFastBac1) cleaved with BamHI and EcoRI. For bacterial expression, the same cleaved PCR products encoding Pim-1 or Pim-2 were ligated into a modified E. coli expression vector pET28(a) cleaved with BamHI and EcoRI. Amino-terminal hexahistidine tags followed by a thrombin cleavage site were previously added to the vectors using standard methods of molecular biology.
(§2) Recombinant baculoviruses expressing Pim-1 or Pim-2 were made using standard methods (Fastbac manual, Invitrogen, Carlsbad, Calif.). […] Cells were harvested by centrifugation and frozen at −80 C. For E. coli expression, cells carrying pET28-His6-Th-Pim-1 or pET28-His6-Th-Pim-2 were picked from a single colony and grown o/n in LB media. The o/n culture was used to inoculate a 2 liter flask with 500 mL media. This was grown o/n and used to inoculate 15-20 liters of Terrific Broth in a New Brunswick Scientific fermentor. The E. coli were grown at 37° C. to and OD600 >1.6. The temperature was dropped to 18° C. and o/n expression was induced with 0.5 mM IPTG. Cells were harvested by centrifugation and frozen at −80° C.
(§3) The slurry was centrifuged at 1,000×g for 5 min, the supernatant decanted, and the resin suspended in 40 mL of lysis wash buffer (lysis buffer at 0.75 M NaCl). This step was repeated 3× and the resin was transferred to a 2.5 cm glass column. Ten column volumes of wash buffer (0.05 M HEPES, pH 8.0, 0.1 M NaCl, 0.01 M 2-mercaptoethanol, 10%(w/v) glycerol) were applied to the resin followed by 10 column volumes of elution buffer (0.05 M HEPES, pH 8.0, 0.25 M NaCl, 0.01 M 2-mercaptoethanol, 10%(w/v) glycerol, 0.1 M imidazole). Fractions were analyzed by SDS-PAGE and those containing the protein of interest were pooled and concentrated. The concentrated protein was applied to an Amersham Superdex 75 (XK 26/60) column equilibrated in 0.025 M Tris-HCl, pH 7.5, 0.1 M NaCl, 0.01 M 2-mercaptoethanol, 10% (w/v) glycerol. […] Fractions containing the monomeric protein of interest were pooled, concentrated to ˜2 mg/mL, and stored at −80° C.
(§4) The phosphorylation of biotinylated-BAD (S112) peptide by full length recombinant Pim-1, Pim-2, or Pim-3 protein was detected with streptavidin:Allophycocyanin (APC) conjugate and a europium (Eu) labeled antibody directed against phosphorylated-BAD (S112). […] The fluorescence is directly proportional to the amount of phosphorylated BAD peptide present in the reaction. […] A reference compound was included on each assay plate in order to validate that plate; on one plate of every assay run, two additional reference compounds were included. The final buffer conditions were as follows: 60 mM Hepes, pH 7.0, 0.05% BSA, 2 mM DTT. Incubations were carried out at RT (22° C.) for 2 h for Pim-1, 1 hour and 30 min for Pim-3, and 45 min for Pim-2. The reaction was stopped by the addition of 3 mM EDTA, and fluorescence was measured by an HTRF® Rubystar microplate reader. For each plate, percent of control (POC) values were calculated for each well. Values for the IC50 IP were estimated using a standard 4-parameter logistic model.

[2] = system: KMS-12-BM myeloma cell line; assay: Pim KMS-12 cell assay (phospho-BAD S112 / total BAD, MSD); details: Homo sapiens, KMS-12-BM
[3] = target: T2, Pim-2 (Homo sapiens (Human), UniProt Q9P1W9); assay: Pim enzyme assay (HTRF, 96-well), Pim-2; type: biochemical; details: full length recombinant Pim-2, biotinylated-BAD (S112) peptide, 10-point curve, 45 min RT, read-out: Pim-2 IC50 IP
T2 sequence (Q9P1W9 whole entry): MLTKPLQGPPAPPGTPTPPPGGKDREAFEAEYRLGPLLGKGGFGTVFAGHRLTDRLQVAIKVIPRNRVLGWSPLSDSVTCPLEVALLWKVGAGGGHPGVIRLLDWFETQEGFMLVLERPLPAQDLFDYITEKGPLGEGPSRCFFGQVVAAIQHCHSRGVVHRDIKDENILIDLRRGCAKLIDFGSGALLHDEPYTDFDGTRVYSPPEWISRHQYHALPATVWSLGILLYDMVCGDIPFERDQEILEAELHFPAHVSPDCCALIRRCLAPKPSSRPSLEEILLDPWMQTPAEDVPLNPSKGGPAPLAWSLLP
Excerpt: as §1, §2, §3, §4

[4] = target: T1, Pim-1; assay: Pim-Mn enzyme assay (HTRF, 384-well), Pim-1; type: biochemical; details: Pim-1 enzyme 5 pM, ATP 1.5 μM, BAD (S112) 0.5 μM, HTRF, 22-point curve; read-out: Pim-1-Mn IC50 IP
[5] = target: T2, Pim-2; assay: Pim-Mn enzyme assay (HTRF, 384-well), Pim-2; type: biochemical; details: Pim-2 enzyme 0.5 pM, ATP 1.5 μM, BAD (S112) 0.5 μM, HTRF, 22-point curve; read-out: Pim-2-Mn IC50 IP
[6] = read-out: KMS-12-BM IC50 IP, KMS-12-BM cells, phospho-BAD (S112) vs total BAD, 1 hour 50 min with compound

T1 sequence (P11309 whole entry): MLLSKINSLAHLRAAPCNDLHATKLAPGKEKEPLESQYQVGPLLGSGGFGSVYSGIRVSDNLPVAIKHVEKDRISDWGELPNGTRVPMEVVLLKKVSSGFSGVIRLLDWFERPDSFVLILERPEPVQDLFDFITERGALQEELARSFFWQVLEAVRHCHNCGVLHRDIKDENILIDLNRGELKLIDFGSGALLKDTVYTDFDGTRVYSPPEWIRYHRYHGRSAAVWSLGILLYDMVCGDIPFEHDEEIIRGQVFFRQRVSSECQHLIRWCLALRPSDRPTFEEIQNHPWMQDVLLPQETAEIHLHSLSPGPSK

Row | Structure (SMILES) | IC50 [1] | IC50 [3] | IC50 [2, 6] | IC50 [4] | IC50 ([2]; read-out: KMS-12-BM IC50 IP) | IC50 [5]
1 | Cc1nc2cccc(-c3cc4c([nH]3)CCNC4=O)c2nc1NC(C)C [Example 192, 2-(3-(isopropylamino)-2-methylquinoxalin-5-yl)-6,7-dihydro-1H-pyrrolo[3,2-c]pyridin-4(5H)-one] | 7.5 nM | 4.9 nM |  |  | 270 nM | 
2 | O=C1NCCc2[nH]c(-c3cccc4ccc(Oc5cccc(F)c5)nc34)cc21 [Example 42, 2-(2-(3-fluorophenoxy)-8-quinolinyl)-1,5,6,7-tetrahydro-4H-pyrrolo[3,2-c]pyridin-4-one] | 3.6 nM | 9.1 nM | 3460 nM |  |  | 
3 | O=C1NCCc2[nH]c(-c3cccc4ccc(NC5CCCCC5)nc34)cc21 [Example 83, 2-(2-(cyclohexylamino)quinolin-8-yl)-6,7-dihydro-1H-pyrrolo[3,2-c]pyridin-4(5H)-one] | 2 nM | 15 nM |  |  | 2910 nM | 
4 | Cc1nc2cccc(-c3cc4c([nH]3)CCNC4=O)c2nc1N1CCC1 [Example 139, 2-(3-(azetidin-1-yl)-2-methylquinoxalin-5-yl)-6,7-dihydro-1H-pyrrolo[3,2-c]pyridin-4(5H)-one] | 17.6 nM | 16 nM |  | 24.2 nM |  | 19.7 nM
5 | O=C1NCCc2[nH]c(-c3cccc4ccc(Oc5ccc(Cl)cc5)nc34)cc21 [Example 18, 2-(2-(4-chlorophenoxy)quinolin-8-yl)-6,7-dihydro-1H-pyrrolo[3,2-c]pyridin-4(5H)-one] | 15.5 nM | 44.9 nM |  |  |  | 
6 | O=C1NCCc2[nH]c(-c3cccc4ccc(Nc5cncnc5)nc34)cc21 [Example 13, 2-(2-(pyrimidin-5-ylamino)quinolin-8-yl)-6,7-dihydro-1H-pyrrolo[3,2-c]pyridin-4(5H)-one] | 0.8 nM | 2.8 nM |  |  |  | 
7 | O=C1NCCc2[nH]c(-c3cccc4ccc(Oc5cccc(Cl)c5)nc34)cc21 [Example 41, 2-(2-(3-chlorophenoxy)-8-quinolinyl)-1,5,6,7-tetrahydro-4H-pyrrolo[3,2-c]pyridin-4-one] | 13.6 nM | 68 nM |  |  |  | 
8 | Cc1ccc(C(N)=O)cc1-c1ccc2cccc(-c3cc4c([nH]3)CCNC4=O)c2n1 [Example 232, 4-methyl-3-(8-(4-oxo-4,5,6,7-tetrahydro-1H-pyrrolo[3,2-c]pyridin-2-yl)-2-quinolinyl)benzamide] | 23.3 nM | 52.9 nM |  |  |  | 
9 | O=c1[nH]cnc2[nH]c(-c3cccc4ccc(Cl)nc34)cc12 [Example 19, 6-(2-chloroquinolin-8-yl)-3H-pyrrolo[2,3-d]pyrimidin-4(7H)-one trifluoroacetate] | 133 nM | 908 nM |  |  |  | 

More lines, in order of falling IC50 [1], values ahead:

Row | IC50 [1] | IC50 [3] | IC50 [2, 6] | IC50 [4] | Structure (SMILES) | IC50 ([2]; read-out: KMS-12-BM IC50 IP) | IC50 [5]
10 | 671 nM | 667 nM |  |  | O=C1NCCn2cc(-c3cccc4ccc(C(=O)N5CCOCC5)nc34)cc21 [Example 167, 7-(2-(morpholine-4-carbonyl)quinolin-8-yl)-3,4-dihydropyrrolo[1,2-a]pyrazin-1(2H)-one] |  | 
11 | 315 nM | 636 nM |  |  | O=C1NCCc2[nH]c(-c3cccc4ccc(Cl)nc34)cc21 [Example 1, 2-(2-chloroquinolin-8-yl)-6,7-dihydro-1H-pyrrolo[3,2-c]pyridin-4(5H)-one] |  | 
12 | 110 nM | 85.7 nM |  | 53.6 nM | Cc1nc2cccc(-c3cc4c([nH]3)CCNC4=O)c2nc1NC1CCCNC1=O (racemic) [Example 200, rac-2-(2-methyl-3-((2-oxopiperidin-3-yl)amino)quinoxalin-5-yl)-6,7-dihydro-1H-pyrrolo[3,2-c]pyridin-4(5H)-one] |  | 41.8 nM
13 | 92 nM | 92 nM |  | 90.9 nM | Cn1cc(-c2ccc3ccc(F)c(-c4cc5c([nH]4)CCNC5=O)c3n2)cn1 [Example 229, 2-(7-fluoro-2-(1-methyl-1H-pyrazol-4-yl)quinolin-8-yl)-6,7-dihydro-1H-pyrrolo[3,2-c]pyridin-4(5H)-one] |  | 
14 | 46.6 nM | 340 nM |  |  | O=C1NCCc2[nH]c(-c3cccc4ccc(O[C@@H]5CCCNC5)nc34)cc21 [Example 89, (R)-2-(2-(piperidin-3-yloxy)quinolin-8-yl)-6,7-dihydro-1H-pyrrolo[3,2-c]pyridin-4(5H)-one] |  | 
15 | 39.4 nM | 206 nM |  |  | O=C1NCC(Cc2ccccc2)c2[nH]c(-c3cccc4cccnc34)cc21 (racemic) [Example 119, rac-7-benzyl-2-(quinolin-8-yl)-6,7-dihydro-1H-pyrrolo[3,2-c]pyridin-4(5H)-one] |  | 
16 | 38.5 nM | 98.4 nM |  |  | O=C1NCCc2[nH]c(-c3cccc4ccc(OCc5ccccc5)nc34)cc21 [Example 20, 2-(2-(benzyloxy)quinolin-8-yl)-6,7-dihydro-1H-pyrrolo[3,2-c]pyridin-4(5H)-one] |  | 
17 | 34.8 nM | 30.1 nM |  |  | Cc1nc2cccc(-c3cc4c([nH]3)CCNC4=O)c2nc1N1CCCC1 [Example 138, 2-(2-methyl-3-(pyrrolidin-1-yl)quinoxalin-5-yl)-6,7-dihydro-1H-pyrrolo[3,2-c]pyridin-4(5H)-one] |  | 
18 | 19 nM | 181 nM |  |  | C[C@@H](Nc1ccc2cccc(-c3cc4c([nH]3)CCNC4=O)c2n1)c1ccccc1 [Example 111, (R)-2-(2-((1-phenylethyl)amino)quinolin-8-yl)-6,7-dihydro-1H-pyrrolo[3,2-c]pyridin-4(5H)-one] |  | 
19 | 15.9 nM | 43.7 nM |  |  | O=c1[nH]ccc2[nH]c(-c3cccc4ccc(Oc5ccccc5)nc34)cc12 [Example 225, 2-(2-phenoxyquinolin-8-yl)-1H-pyrrolo[3,2-c]pyridin-4(5H)-one] |  | 
20 | 8.3 nM | 13.5 nM |  |  | O=C1NCCc2[nH]c(-c3cccc4cnc(Nc5ccccc5)nc34)cc21 [Example 251, 2-(2-(phenylamino)quinazolin-8-yl)-6,7-dihydro-1H-pyrrolo[3,2-c]pyridin-4(5H)-one] |  | 
21 | 6.9 nM | 17.9 nM |  |  | O=C1NCCc2[nH]c(-c3cccc4cnc(C5(c6ccccc6)CC5)nc34)cc21 [Example 244, 2-(2-(1-phenylcyclopropyl)quinazolin-8-yl)-6,7-dihydro-1H-pyrrolo[3,2-c]pyridin-4(5H)-one] |  | 
22 | 6.4 nM | 141 nM |  |  | O=C1NCCc2[nH]c(-c3cccc4ccc(N[C@@H]5CCCNC5)nc34)cc21 [Example 124, (R)-2-(2-(piperidin-3-ylamino)quinolin-8-yl)-6,7-dihydro-1H-pyrrolo[3,2-c]pyridin-4(5H)-one] |  | 
23 | 1.9 nM | 4.3 nM | 1280 nM |  | CC1CNC(=O)c2cc(-c3cccc4ncc(Nc5ccccc5)nc34)[nH]c21 (racemic) [Example 187, rac-7-methyl-2-(3-(phenylamino)quinoxalin-5-yl)-6,7-dihydro-1H-pyrrolo[3,2-c]pyridin-4(5H)-one] |  | 
